Conditions: 400 mg BID (n=4)

O=C(Nc1ccc(Oc2ccnc3c2CCN3)c(F)c1)c1c[nH]cc(-c2ccc(F)cc2)c1=O
3 (75.0) n (%): TRAE Elevated ALT, any grade | TRAE Elevated AST, any grade | TRAE PPE, grade 3-4
1 (25.0) n (%): TRAE Elevated GGT, any grade | TRAE Elevated LDH, any grade | TRAE Elevated alpha-HBDH, any grade | TRAE Elevated bilirubin, any grade | TRAE Elevated blood creatinine, any grade | TRAE Hyperlipidaemia, any grade | TRAE Hypertension, any grade | TRAE Leukopenia, any grade | TRAE Thrombocytopenia, grade 3-4
4 (100.0) n (%): TRAE PPE, any grade
0 n (%): TRAE Dyskinesia, any grade | TRAE Dyskinesia, grade 3-4 | TRAE Dysphonia, any grade | TRAE Dysphonia, grade 3-4 | TRAE Dyspnoea, any grade | TRAE Dyspnoea, grade 3-4 | TRAE Electrocardiogram QT prolonged, any grade | TRAE Electrocardiogram QT prolonged, grade 3-4 | TRAE Elevated ALT, grade 3-4 | TRAE Elevated AST, grade 3-4 | TRAE Elevated D dimer, any grade | TRAE Elevated D dimer, grade 3-4 | TRAE Elevated GGT, grade 3-4 | TRAE Elevated LDH, grade 3-4 | TRAE Elevated alpha-HBDH, grade 3-4 | TRAE Elevated bilirubin, grade 3-4 | TRAE Elevated blood creatinine, grade 3-4 | TRAE Elevated creatine phosphokinase, grade 3-4 | TRAE Elevated serum urea, any grade | TRAE Elevated serum urea, grade 3-4 | TRAE Elevated troponin, any grade | TRAE Elevated troponin, grade 3-4 | TRAE Genital rash, any grade | TRAE Genital rash, grade 3-4 | TRAE Haematuria, any grade | TRAE Haematuria, grade 3-4 | TRAE Headache, any grade | TRAE Headache, grade 3-4 | TRAE Hyperhidrosis, any grade | TRAE Hyperhidrosis, grade 3-4 | TRAE Hyperlipidaemia, grade 3-4 | TRAE Hypertension, grade 3-4 | TRAE Hypoaesthesia oral, any grade | TRAE Hypoaesthesia oral, grade 3-4 | TRAE Hypocalcaemia, any grade | TRAE Hypocalcaemia, grade 3-4 | TRAE Hypotension, any grade | TRAE Hypotension, grade 3-4 | TRAE Insomnia, any grade | TRAE Insomnia, grade 3-4 | TRAE Leukopenia, grade 3-4 | TRAE Nausea, any grade | TRAE Nausea, grade 3-4 | TRAE Neuritis, any grade | TRAE Neuritis, grade 3-4 | TRAE Occult blood, any grade | TRAE Occult blood, grade 3-4 | TRAE Oedema peripheral, any grade | TRAE Oedema peripheral, grade 3-4 | TRAE Onycholysis, any grade | TRAE Onycholysis, grade 3-4 | TRAE Oropharyngeal pain, any grade | TRAE Oropharyngeal pain, grade 3-4 | TRAE Paraesthesia, any grade | TRAE Paraesthesia, grade 3-4 | TRAE Proteinuria, any grade | TRAE Proteinuria, grade 3-4 | TRAE Pruritus, any grade | TRAE Pruritus, grade 3-4 | TRAE Rash maculo-papular, any grade | TRAE Rash maculo-papular, grade 3-4 | TRAE Sinus tachycardia, any grade | TRAE Sinus tachycardia, grade 3-4 | TRAE Skin fissures, any grade | TRAE Skin fissures, grade 3-4 | TRAE Supraventricular extrasystoles, any grade | TRAE Supraventricular extrasystoles, grade 3-4 | TRAE Upper respiratory tract infection, any grade | TRAE Upper respiratory tract infection, grade 3-4
2 (50.0) n (%): TRAE Elevated creatine phosphokinase, any grade | TRAE Thrombocytopenia, any grade
